We go through two compounds from publication PMC7562719, “Discovery of a CNS penetrant small molecule SMN2 splicing modulator with improved tolerability for spinal muscular atrophy” (Scientific Reports, 2020).

One experiment relates to HTT mRNA. Description: qPCR of HTT transcripts in GM03813 fibroblasts. It counts as cell-based, human. Particulars: for Selectivity HTT /FL-SMN2: EC50 of HTT divided by EC1.5× of FL-SMN2; for EC50: Homo sapiens, Fibroblast, GM03813 fibroblasts, 24 h, 50% total HTT mRNA reduction, 95% CI in brackets. The method, then:
GM03813 fibroblasts, GM24468-derived MNs, NRK-49F, MDCK, CV-1, or NCMDF cells were plated at a density of 0.5 or 1.5 × 10^4, 4 × 10^4, 5 × 10^3, 5 × 10^3, 8 × 10^3, or 6 × 10^3 cells/well on 96-well plates, respectively. After approximately 6 h, the medium was added with the same volume of culture medium containing each compound at the concentration of 0.06, 0.2, 0.6, 0.2, and 6 µM. The final concentration of DMSO was adjusted to 0.1% in culture condition.
All cells were treated with above compounds for 24 h and washed once with Dulbecco’s Phosphate-Buffered Saline without Ca and Mg [D-PBS (–)] (Wako or Nakarai Tesque). In case of using GM03813 or GM24468-derived MNs, cell lysis and reverse transcription were carried out using SuperPrep Cell Lysis & RT Kit for qPCR in accordance with manufacturer’s recommendations (Toyobo, Japan). qPCR was performed using THUNDERBIRD Probe qPCR Mix (Toyobo). The final concentrations of primers and probes were adjusted to 0.4 µM and 0.15 µM, respectively (Supplementary Table 1). Cycle conditions were as follows; 95 °C for 1 min; followed by 40 cycles of denaturation at 95 °C for 15 s; annealing and elongation at 60 °C for 1 min in the ViiA7 RT-PCR system (Thermo Fisher Scientific). The copy numbers of each target were normalized to those of GAPDH.
In order to elucidate splicing pattern of cryptic GALC and HTT transcripts, GM03813 cells were seeded at 5 or 15 × 10^3 cells/well in 96-well plates and incubated with TEC-1 or SMN-C3 (0.03, 0.1, 0.3, 0.1, 1 or 3 µM) for 6 h under final concentration of 200 µg/ml CHX. For FOXM1, GM03813 fibroblasts were plated at 1.5 × 10^4 cells/well in 96-well plate and incubated with TEC-1, SMN-C3 or risdiplam (0.03, 0.1, 0.3 and 1 µM) for 24 h.
GM03813 fibroblasts and GM24468-derived MNs were seeded at 1.5 × 10^4 and 4 × 10^4 cells/well in 96-well plates and were treated with TEC-1 or SMN-C3 for 72 h at the concentration of 0.01, 0.03, 0.1, 0.3, 1, or 3 µM. After 72 h exposure of compound, GM24468 derived MNs and GM03813 fibroblasts were washed once with D-PBS (-), lysed with RIPA buffer (Wako) containing cOmplete (Sigma-Aldrich) and PhosSTOP (Sigma-Aldrich). The lysates were spun at 15,000 rpm for 15 min at 4 °C, and the supernatants were collected. The protein concentration was quantified with BCA kit (Wako). The lysates, adjusted to have the same protein amount, were mixed with NuPAGE LDS sample buffer containing DTT and heated at 95 °C for 5 min. Except for HTT detection, each sample (2 µg total protein/lane) was loaded Perfect NT Gel 7.5–15% gel (DRC, Japan) and run at 150 V for 60–70 min with Tris/glycine/SDS running buffer (BIO-RAD, USA). The proteins were transferred from the gel to Immobilon-P PVDF Membrane (Millipore, USA) with a transfer solution comprising 10% methanol and 1 × Novex Tris-glycine transfer buffer at 25 V for 180–240 min using Criterion blotter (BIO-RAD). In the case of HTT detection, each sample (2 µg total protein/lane) was loaded to Perfect NT Gel 7.5–15% gel and run at 150 V for 60–70 min with NuPAGE Tris–Acetate SDS Running Buffer. The proteins were transferred with a transfer solution comprising 10% methanol and 1 × Novex Tris-glycine transfer buffer at 25 V for 960 min using Criterion blotter. The membranes were blocked with Pierce Protein free T20 blocking reagent for 1 h and subsequently incubated with primary antibodies diluted with Can Get Signal Solution 1 (Toyobo) at room temperature for 1 h. Anti-SMN monoclonal antibody (MoAb)[15] […]

Another experiment relates to GALC. Description: GALC enzymatic assay from Hs683 cells. To be noted: 3 days. The class given is cell-based, human. How it is done:
GALC enzymatic activities were quantified as reported by Wiederschain et al.[47]. Hs683 cells were seeded at 1.5 × 10^5 cells/well in 6-well plate. Cells were treated with TEC-1 (0.1, 0.3, or 1 µM) or SMN-C3 (0.03, 0.1, 0.3, or 1 µM) for 3 days. Hs683 cells were washed with D-PBS (–), collected with ultra-pure water using a cell scraper, and homogenized with homogenizers (NS-4, NS310E, Micotechnition, Japan) for 10 s. Cell lysates were centrifuged at 600 × g for 10 min at 4 °C, followed by collection of supernatants. The concentration of protein of each sample was quantified with a BCA kit. The samples were adjusted to 1 µg protein/µL (total volume 20 µL) with ultra-pure water and then 80 µL of reaction buffer (0.25% taurocholate, 0.05% oleic acid and 0.1 mol/L citrate, pH 4.4) containing 80 µM 6-Hexadecanoylamino-4-methylumbelliferone b-D-galactopyranoside (HMU-Gal, Carbosynth, UK) was added. Stop buffer (0.2 mol/L Glycine solution with NaOH, pH 10.6) was mixed with an equal amount of ethanol. The mixture was reacted at 37 °C for 20 h. […] Signals were detected by reading the fluorescence emission at 450 nm with plate reader (Enspire, PerkinElmer) excited by 385 nm. The fluorescence intensity was corrected by the value of standard substrate of 6-hexadecanoylamino-4-methylumbelliferone (Cat. No. EH10520, Carbosynth).

A value given as a limit tells only on which side of the number the result lay.

`CCN1CCC(c2cc(C)c3nc(-c4cc5c(C)nc(C)cn5n4)cc(=O)n3c2)CC1` [SMN-C3, reference compound]: in the experiment on HTT mRNA, the “Selectivity HTT /FL-SMN2” value came to 4 and the EC50 was 547 nM. The “GALC enzymatic activity compared to TEC-1” value in the experiment with GALC was “strongly decreased the activity of GALC”.

On to `Cc1cn2nc(-c3nc4ccc(N5CCN(C)CC5)cc4c(=O)[nH]3)cc2c(C)n1` [TEC-1, 2-(4,6-dimethylpyrazolo[1,5-a]pyrazin-2-yl)-6-(4-methylpiperazin-1-yl)quinazolin-4(3H)-one], for which, in the experiment on HTT mRNA, the “Selectivity HTT /FL-SMN2” value is above 61 and the EC50 was above 3000 nM. For the same compound, the “inclusion of the HTT cryptic exon or reduction of HTT at the mRNA and full-length protein levels” value in the experiment on HTT mRNA (GM03813 cells) was “did not substantially impact”. Besides, in the experiment on GALC (3000 nM), the GALC enzymatic activity entry is listed as “slight decrease”.
